Here are results for 84 compounds from the RepoRT retention time repository (doi:10.1007/s11306-011-0298-z).

The nature of this data set: RP, Waters ACQUITY UPLC HSS T3, 100 × 2.1 mm, 1.8 µm, 30 °C, 0.3 mL/min, estimated dead time 0.73 min; A: water + 0.1% formic acid, pH 3; B: methanol + 0.1% formic acid, pH 3; gradient (min/%B) 0/0 6/0 56/100 60/100. The note with it: stereoisomer not certain.
Take `Oc1ccc(C=Cc2cc(O)cc3c2C(c2cc(O)cc(O)c2)C(c2ccc(O)cc2)O3)cc1` (centres undefined): the LC retention time was 33.5 min.

Turning to `OCC1OC(Oc2ccccc2)C(O)C(O)C1O` (centres undefined), the LC retention time is 16.4 min.

For `Nc1ncnc2c1ncn2C1OC(COP(=O)(O)O)C(O)C1O` (centres undefined), the LC retention time is 4.08 min.

For `OCC(O)C(O)CO` (racemic), the LC retention time was 1.41 min.

On to `CC(C)CCCC(C)C1CCC2C3CC4OC45CC(O)CCC5(C)C3CCC12C` (racemic), for which the LC retention time is 57.7 min.

In the case of `CC1=CCCC(C)(C)C12CCC(C)O2` (racemic), the LC retention time was 48.1 min.

Take `O=C(C=Cc1ccc(O)c(O)c1)OC1CC(OC(=O)C=Cc2ccc(O)c(O)c2)(C(=O)O)CC(O)C1O` (centres undefined) [1,3 - dicaffeoylquinic acid]: the LC retention time is 24.9 min.

As to `NCCCN` [1,3 diaminopropane], the LC retention time is 1 min.

Consider `NCCCCN` [1,4-diaminobutane], for which the LC retention time was 1.1 min.

On to `O=C(O)Cc1c[nH]c2ccccc12` [1H-indol-3-ylacetic acid], for which the LC retention time is 26.6 min.

As to `Nc1nc2c(ncn2C2CC(O)C(COP(=O)(O)O)O2)c(=O)[nH]1` (centres undefined) [2'-deoxyguanosine-5'-phosphate], the LC retention time was 7.99 min.

As for `O=C(O)c1c(O)cccc1O` [2,6-dihydroxybenzoic acid], the LC retention time is 16.9 min.

Turning to `O=C(O)C(=O)C(O)C(O)C(O)CO` [2-keto-D-gluconic acid], the LC retention time was 1.4 min.

In the case of `C=Cc1ccc(O)c(OC)c1` [2-methoxy-4-vinylphenol], the LC retention time is 31.3 min.

On to `CCC(C)CN` (centres undefined) [2-methylbutylamine], for which the LC retention time is 6.5 min.

In the case of `CC(C)C(=O)OCCOc1ccccc1` [2-phenoxyethyl isobutyrate], the LC retention time is 40.2 min.

In the case of `O=C1CCCN1` [2-pyrrolidinone], the LC retention time was 5.9 min.

In the case of `O=Cc1ccc(O)c(O)c1` [3,4 dihydroxybenzaldehyde], the LC retention time was 16.2 min.

As for `O=C(O)c1cc(O)cc(O)c1` [3,5-dihydroxybenzoic acid], the LC retention time is 14.3 min.

For `CCOc1cc(C=O)ccc1O` [3-ethoxy-4-hydroxybenzaldehyde], the LC retention time was 27.2 min.

For `CC(O)(CC(=O)O)CC(=O)O` [3-hydroxy-3-methyl glutaric acid], the LC retention time is 7.04 min.

In the case of `O=Cc1cccc(O)c1` [3-hydroxybenzaldehyd], the LC retention time is 20.3 min.

For `Cc1c[nH]c2ccccc12` [3-methyl indole], the LC retention time was 34.1 min.

On to `CC(=O)CCc1ccc(O)cc1` [4-(4-hydroxyphenyl)butan-2-one], for which the LC retention time is 24.6 min.

In the case of `Nc1ccc(C(=O)O)cc1` [4-aminobenzoic acid], the LC retention time is 12.3 min.

As to `CN(C)c1ccc(C=CC=O)cc1` [4-dimethylaminocinnamaldehyde], the LC retention time is 34.5 min.

With `O=C(O)c1ccc(O)cc1` [4-hydroxybenzoic acid], the LC retention time is 17.5 min.

For the compound `O=c1cc(O)c2ccccc2o1` [4-hydroxycoumarin], the LC retention time is 24.2 min.

Consider `Cc1cc(=O)oc2cc(O)ccc12` [4-methylumbelliferone], for which the LC retention time is 27.8 min.

Regarding `Oc1ccc(C=Cc2ccccc2)cc1` [4-stilbenol], the LC retention time is 41.8 min.

Regarding `O=Cc1ccc(CO)o1` [5-hydroxymethyl-2-furaldehyde], the LC retention time was 11.9 min.

For `Cc1ccc(C=O)o1` [5-methyl furfural], the LC retention time is 20.3 min.

In the case of `COc1ccc2oc(-c3ccccc3)cc(=O)c2c1` [6-methoxyflavone], the LC retention time is 42.9 min.

With `CCCCCC(O)C=CC=CCC=CCC=CCCCC(=O)O` [15(S)hydroxy-(5Z,8Z,11Z,13E)-eicosatetraenoic acid], the LC retention time was 50.4 min.

`CC(C)=C1CCC(C)CC1=O` [(R)-(+)-pulegone]: the LC retention time is 38.9 min.

As to `COc1cc(C(C)=O)ccc1O` [Acetovanillone], the LC retention time was 23.9 min.

With `O=C(O)CC(Nc1ncnc2c1ncn2C1OC(COP(=O)(O)O)C(O)C1O)C(=O)O` (centres undefined) [Adenylosuccinic acid], the LC retention time was 12.7 min.

Turning to `NC(=O)CCCCC1CCSS1` (stereo not drawn) [Alpha lipoamide], the LC retention time is 29 min.

With `CCCCCCCCCCCCCCCCCC(=O)OCCCC` [Butyl stearate], the LC retention time is 59.5 min.

Regarding `OCC1OC(OC2C(Oc3cc4c(O)cc(O)cc4[o+]c3-c3ccc(O)c(O)c3)OC(CO)C(O)C2O)C(O)C(O)C1O` (centres undefined) [Cyanidin 3-sophoroside], the LC retention time was 21.4 min.

Take `OCc1ccccc1OC1OC(CO)C(O)C(O)C1O` (stereo not drawn) [D(-)-Salicin]: the LC retention time is 16.1 min.

For the compound `O=C(CO)C(O)C(O)C(O)CO` (stereo not drawn) [D(-)fructose], the LC retention time is 1.4 min.

Consider `C[C@@H](O)[C@H](O)[C@H](O)[C@@H](O)C=O` [D-(+)-fucose], for which the LC retention time is 1.8 min.

Regarding `OCC1OC(OC2OC(CO)C(O)C(O)C2O)C(O)C(O)C1O` [D-(+)-trehalose], the LC retention time was 1.5 min.

For `O=C[C@H](O)[C@@H](O)[C@@H](O)[C@H](O)C(=O)O` [D-(+)galacturonic acid], the LC retention time is 1.33 min.

Regarding `OCC1OC(O)C(O)C1O` [D-(-)-Ribose], the LC retention time is 1.4 min.

Turning to `CC(C)(CO)C(O)C(=O)NCCC(=O)O` [D-pantothenic acid], the LC retention time is 14.3 min.

As to `CCCCCCCCCCCC=CC=CC=CC=CC=CC(=O)O` [Docosapentaenoic acid], the LC retention time was 54 min.

On to `Oc1ccc(C=Cc2cc(O)cc3c2C(c2cc(O)cc4c2C(c2cc(O)cc(O)c2)C(c2ccc(O)cc2)O4)C(c2ccc(O)cc2)O3)cc1` (stereo not drawn) [E-cis-miyabenol C], for which the LC retention time was 32.6 min.

As to `Cc1cc2nc3c(=O)[nH]c(=O)nc-3n(CC(O)C(O)C(O)COP(=O)(O)OP(=O)(O)OCC3OC(n4cnc5c(N)ncnc54)C(O)C3O)c2cc1C` (centres undefined) [FAD], the LC retention time is 20.7 min.

Regarding `Cc1cc2nc3c(=O)[nH]c(=O)nc-3n(CC(O)C(O)C(O)COP(=O)(O)O)c2cc1C` (centres undefined) [FMN], the LC retention time was 21.9 min.

Consider `CC(CCC(=O)O)C1CCC2C3C(O)C(O)C4CC(O)CCC4(C)C3CCC12C` (centres undefined) [Hyocholic acid], for which the LC retention time was 45.6 min.

For the compound `O=Cc1c[nH]c2ccccc12` [Indole-3-aldehyde], the LC retention time was 25.1 min.

On to `O=C(O)C(O)Cc1c[nH]c2ccccc12` (centres undefined) [Indolelactic acid], for which the LC retention time was 24.6 min.

With `O=C(O)[C@H](O)[C@@H](O)C(=O)O` [L-(+)-tartaric acid], the LC retention time was 1.51 min.

In the case of `NC(=O)CC[C@H](N)C(=O)O` [L-Glutamine], the LC retention time was 1.3 min.

For the compound `CCCCCCCCC=CCCCCCCCC(=O)OC(COC(=O)CCCCCCCCCCCCCCC)COP(=O)([O-])OCC[N+](C)(C)C` [L-a-Phosphatidylcholine], the LC retention time was 59.9 min.

For the compound `NC(=O)C[C@H](N)C(=O)O` [L-asparagine], the LC retention time was 1.27 min.

For the compound `N[C@@H](CC(=O)O)C(=O)O` [L-aspartic acid], the LC retention time was 1.28 min.

On to `NC(=O)NCCC[C@H](N)C(=O)O` [L-citrulline], for which the LC retention time is 1.4 min.

For the compound `N[C@@H](CCSC[C@H](N)C(=O)O)C(=O)O` [L-cystathionine], the LC retention time was 1.21 min.

For `N[C@@H](CS)C(=O)O` [L-cysteine], the LC retention time was 1.23 min.

For the compound `N[C@@H](CCC(=O)O)C(=O)O` [L-glutamic acid], the LC retention time was 1.31 min.

Regarding `NC(CCC(=O)NC(CS)C(=O)NCC(=O)O)C(=O)O` [L-glutathione], the LC retention time was 3.4 min.

As for `N[C@@H](Cc1cnc[nH]1)C(=O)O` [L-histidine], the LC retention time is 1.2 min.

Take `N[C@@H](CCO)C(=O)O` [L-homoserine]: the LC retention time is 1.29 min.

As for `CC[C@H](C)[C@H](N)C(=O)O` [L-isoleucine], the LC retention time was 4.62 min.

For the compound `Nc1ccccc1C(=O)CC(N)C(=O)O` [L-kynurenine], the LC retention time was 11 min.

As for `CC(C)C[C@H](N)C(=O)O` [L-leucine], the LC retention time is 4.98 min.

For the compound `NCCCC[C@H](N)C(=O)O` [L-lysine], the LC retention time was 1.18 min.

On to `O=C(O)C[C@H](O)C(=O)O` [L-malic acid], for which the LC retention time was 2 min.

`CSCC[C@H](N)C(=O)O` [L-methionine]: the LC retention time is 2.8 min.

For the compound `CCC[C@H](N)C(=O)O` [L-norvaline], the LC retention time is 2.3 min.

As for `NCCC[C@H](N)C(=O)O` [L-ornithine], the LC retention time was 1.1 min.

Consider `N[C@@H](Cc1ccccc1)C(=O)O` [L-phenylalanine], for which the LC retention time was 11.5 min.

With `O=C(O)[C@@H]1CCCN1` [L-proline], the LC retention time was 1.59 min.

As for `N[C@@H](CCCCN[C@@H](CCC(=O)O)C(=O)O)C(=O)O` [L-saccharopine], the LC retention time is 1.38 min.

Regarding `N[C@@H](CO)C(=O)O` [L-serine], the LC retention time is 1.22 min.

Consider `C[C@@H](O)[C@H](N)C(=O)O` [L-threonine], for which the LC retention time is 1.3 min.

As for `N[C@@H](Cc1c[nH]c2ccccc12)C(=O)O` [L-tryptophan], the LC retention time was 16 min.

As for `N[C@@H](Cc1ccc(O)cc1)C(=O)O` [L-tyrosine], the LC retention time is 6.08 min.

With `CC(C)[C@H](N)C(=O)O` [L-valine], the LC retention time is 2.19 min.

For `CCCCCCCCCCCCCCCCCCCCC(=O)OC` [Methyl henicosanoate], the LC retention time was 60.4 min.

On to `CC1OC(Oc2c(-c3cc(O)c(O)c(O)c3)oc3cc(O)cc(O)c3c2=O)C(O)C(O)C1O` (centres undefined) [Myricitrin (myricetin 3-O-rhamnoside)], for which the LC retention time was 28.3 min.
